Experimental data as given in the supplement of paper PMC10307832.

How the values were obtained:
Assay in all cases: relative viability (nuclei count vs DMSO), 5 days (fraction); higher = more cells survive
Motesanib + Vorinostat = compound: CC1(C)CNc2cc(NC(=O)c3cccnc3NCc3ccncc3)ccc21 [Motesanib] + O=C(CCCCCCC(=O)Nc1ccccc1)NO [Vorinostat] (partner 1 µM)
Procedure, shortened: (§1)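 Lung cancer cell lines in 1536-well plates got either a single drug or a fixed anchor-drug dose together with five library-drug doses (not always all listed) in √10 steps, by pin tool, on the day after seeding. Nuclei were counted after 5 days, and relative viability is the treated-to-vehicle ratio of nuclei counts. Values are medians of duplicate plates.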

Motesanib + Foretinib = compound: CC1(C)CNc2cc(NC(=O)c3cccnc3NCc3ccncc3)ccc21 [Motesanib] + COc1cc2c(Oc3ccc(NC(=O)C4(C(=O)Nc5ccc(F)cc5)CC4)cc3F)ccnc2cc1OCCCN1CCOCC1 [Foretinib] (partner 0.25 µM)
Procedure, shortened: as §1

[1] = compound: C[C@@]1(C(=O)Nc2ccc(F)nc2)CCCN1c1nc(Nc2cc(C3CC3)n[nH]2)c2cccn2n1 + CC(=O)Nc1cccc(-n2c(=O)n(C3CC3)c(=O)c3c(Nc4ccc(I)cc4F)n(C)c(=O)c(C)c32)c1 [Trametinib] (partner 0.02 µM)
Procedure, shortened: as §1

[2] = compound: C[C@@]1(C(=O)Nc2ccc(F)nc2)CCCN1c1nc(Nc2cc(C3CC3)n[nH]2)c2cccn2n1 + CC1(C)CCC(c2ccc(Cl)cc2)=C(CN2CCN(c3ccc(C(=O)NS(=O)(=O)c4ccc(N[C@H](CCN5CCOCC5)CSc5ccccc5)c(S(=O)(=O)C(F)(F)F)c4)cc3)CC2)C1 [Navitoclax] (partner 0.5 µM)
Procedure, shortened: as §1

| Cell Line | relative viability (Motesanib + Vorinostat; first compound 0.01 µM) | relative viability (Motesanib + Vorinostat; first compound 0.03162 µM) | relative viability (Motesanib + Vorinostat; first compound 0.1 µM) | relative viability (Motesanib + Vorinostat; first compound 0.3162 µM) | relative viability (Motesanib + Vorinostat; first compound 1 µM) | relative viability (Motesanib + Foretinib; first compound 0.01 µM) | relative viability (Motesanib + Foretinib; first compound 0.03162 µM) | relative viability (Motesanib + Foretinib; first compound 0.1 µM) | relative viability (Motesanib + Foretinib; first compound 0.3162 µM) | relative viability (Motesanib + Foretinib; first compound 1 µM) | relative viability ([1]; first compound 0.04 µM) | relative viability ([1]; first compound 0.1265 µM) | relative viability ([1]; first compound 0.4 µM) | relative viability ([1]; first compound 1.265 µM) | relative viability ([2]; first compound 0.04 µM) | relative viability ([2]; first compound 0.1265 µM) | relative viability ([2]; first compound 0.4 µM) | relative viability ([2]; first compound 1.265 µM) |
| --- | --- | --- | --- | --- | --- | --- | --- | --- | --- | --- | --- | --- | --- | --- | --- | --- | --- | --- |
| 201T | 0.929 | 0.974 | 1.08 | 1.01 | 1.01 | 1.09 | 1.1 | 0.997 | 1.13 | 1.1 | 0.718 | 0.663 | 0.637 | 0.676 | 1.15 | 1.09 | 1.11 | 1.16 |
| A549 | – | – | – | – | – | 0.88 | 0.942 | 1.02 | 0.944 | 1.03 | – | – | – | – | 0.95 | 0.902 | 0.742 | 0.688 |
| A-427 | 0.96 | 0.87 | 0.913 | 0.89 | 0.88 | 1.04 | 1.05 | 1.06 | 1.16 | 1.23 | 0.644 | 0.548 | 0.537 | 0.579 | 0.885 | 0.988 | 1.03 | 0.915 |
| ABC-1 | 0.786 | 1.22 | 0.939 | 1.24 | 1.06 | 1.1 | 1.06 | 1.04 | 1.05 | 1.2 | – | – | – | – | – | – | – | – |
| BEN | 0.543 | 0.56 | 0.637 | 0.654 | 0.772 | 0.627 | 0.55 | 0.739 | 0.572 | 0.992 | 1.07 | 1.01 | 1.04 | 0.979 | 0.0599 | 0.0547 | 0.0804 | 0.0539 |
| CAL-12T | 0.797 | 0.847 | 0.692 | 0.795 | 0.86 | 1.13 | 1.19 | 1.2 | 1.19 | 1.12 | 0.333 | 0.214 | 0.351 | 0.253 | 1.18 | 1.16 | 1.14 | 1.06 |
| COR-L23 | 0.45 | 0.387 | 0.53 | 0.44 | 0.459 | 0.993 | 1.06 | 0.992 | 0.964 | 0.955 | 0.59 | 0.542 | 0.441 | 0.269 | 1.02 | 1.06 | 0.821 | 0.681 |
| COR-L 105 | 0.861 | 0.866 | 0.81 | 1.03 | 0.819 | 1.2 | 1.03 | 1.16 | 0.821 | 1.42 | 0.44 | 0.42 | 0.439 | 0.399 | 0.788 | 0.477 | 0.65 | 0.607 |
| Calu-6 | – | – | – | – | – | 0.953 | 0.921 | 0.851 | 0.884 | 0.826 | – | – | – | – | 0.83 | 0.637 | 0.62 | 0.141 |
| ChaGo-K-1 | 0.745 | 0.764 | 0.745 | 0.818 | 0.748 | 0.933 | 0.894 | 0.861 | 1.1 | 1.01 | 0.827 | 0.869 | 0.81 | 0.823 | 0.917 | 0.616 | 1.06 | 0.673 |
| EBC-1 | – | – | – | – | – | 0.1 | 0.0945 | 0.109 | 0.111 | 0.132 | – | – | – | – | 0.342 | 0.315 | 0.315 | 0.197 |
